≈ marks a conversion by molar mass, not a printed value. Where “and” joins values, the source holds several entries; their conditions need not be identical. Equal values may be shown once. Where a name gives a salt, the structure may show the parent alone.
Columns and labels:
isolated rat duodenum = assay: Spasmolytic activity of papaverinic type, barium chloride contracture; details: Tyrode 38°; for EC50: read-out: Spasmolytic activity Papaverinic type DE 50 (converted)
Method: a. To show activity of the papaverinic type, the contracturant used is barium chloride acting on the isolated rat duodenum.
The average activity of the substances studied has been effected by determining graphically their DE 30 and DE 50 these being expressed in μg for 20 ml of bath.

[1] = system: isolated ileum of the guinea-pig; assay: Spasmolytic activity of atropinic type, acetylcholine chloride contracture; details: Tyrode 33°; for EC50: Cavia porcellus, read-out: Spasmolytic activity Atropinic type DE 50 (converted)
Source text: b. To show activity of atropinic type the contracturant used is acetylcholine chloride acting on the isolated ileum of the guinea-pig. […]

skin reflex = assay: Local anaesthetic activity, conduction anaesthesia (method of Moukhtar); assay type: in vivo; details: procaine hydrochloride 0.50 g/100 ml, intradermal 0.20 ml; hydrochloride
Source text: The method of MOUKHTAR has been chosen to show the activity of the derivatives studied on conduction anaesthesia (A. MOUKHTAR, C.R. Soc. Biol. 1909-66-187,189).
The reference local anaesthetic substance used in the tests has in each case been procaine hydrochloride in 0.5% solution in an 0.9% isotonic solution of NaCl. The three concentrations used to study the local anaesthetic activity of the new derivatives are 0.50, 0.25 and 0.10%, the vehicle being the isotonic 0.9% solution of NaCl.
The average anaesthetic activity of the substances chosen is expressed comparatively to that of the reference product chosen, by calculating the ratio of the average number n of the stimulations necessary to obtain the appearance of the skin reflex in the case of the derivatives studied, to the average number (n') of the stimulation determined for the reference substance.
The procaine hydrochloride and the derivatives studied are administered by the intradermal route at the rate of 0.20 ml per injection.

Row | EC50 (isolated rat duodenum) | EC50 [1] | SMILES | Spasmolytic activity Papaverinic type DE 30 (isolated rat duodenum) | Spasmolytic activity Atropinic type DE 30 [1] | average number of stimulations for procaine hydrochloride n' (skin reflex)
1 | 0.125 µg/mL (≈ 0.362 µM) | – | C=CCC(Cc1csc2ccccc12)C(=O)OCCN(CC)CC (stereo not shown) [Compound 1] | 3.7 μg for 20 ml of bath | – | –
2 | 4 µg/mL (≈ 11.2 µM) | 4.5 µg/mL (≈ 12.6 µM) | C=CCC(Cc1csc2ccccc12)C(=O)OCCCN1CCCC1 (stereo not shown) [Compound 8] | 42.0 μg for 20 ml of bath | 55 μg/20 ml of bath | –
3 | 1 µg/mL (≈ 2.69 µM) | – | C=CCC(Cc1csc2ccccc12)C(=O)OCCCN1CCCCC1 (stereo not shown) [Compound 9] | 13.0 μg for 20 ml of bath | – | –
4 | 0.65 µg/mL (≈ 1.69 µM) | – | C=CCC(Cc1csc2ccccc12)C(=O)OCCCN1CCCCCC1 (stereo not shown) [Compound 10] | 7.2 μg for 20 ml of bath | – | –
5 | 2.25 µg/mL | 2.1 µg/mL | CCN(CC)CCOC(=O)C(Cc1csc2ccccc12)c1ccccc1 (stereo not drawn) [Compound 13, N,N-diethylamino ethyl ester of α-phenyl-β-[(benzo(b)thienyl-3]propionic acid and its oxalate] | 13.0 μg for 20 ml of bath | 30 μg/20 ml of bath | –
6 | 1.75 µg/mL (≈ 4.61 µM) | 7 µg/mL (≈ 18.4 µM) | O=C(OCCN1CCCC1)C(Cc1csc2ccccc12)c1ccccc1 (stereo not shown) [Compound 14] | 18.0 μg for 20 ml of bath | 90 μg/20 ml of bath | –
7 | 1 µg/mL (≈ 2.72 µM) | 1.75 µg/mL (≈ 4.76 µM) | CN(C)CCCOC(=O)C(Cc1csc2ccccc12)c1ccccc1 (stereo not shown) [Compound 18] | 8.0 μg for 20 ml of bath | 22 μg/20 ml of bath | –
8 | 0.95 µg/mL (≈ 2.33 µM) | 4 µg/mL (≈ 9.81 µM) | O=C(OCCCN1CCCCC1)C(Cc1csc2ccccc12)c1ccccc1 (stereo not shown) [Compound 21] | 8.0 μg for 20 ml of bath | 40 μg/20 ml of bath | –
9 | 0.35 µg/mL (≈ 0.859 µM) | 7 µg/mL (≈ 17.2 µM) | CC(CN1CCCCC1)OC(=O)C(Cc1csc2ccccc12)c1ccccc1 (stereo not shown) [Compound 23] | 3.1 μg for 20 ml of bath | 50 μg/20 ml of bath | –
10 | 0.9 µg/mL (≈ 2.28 µM) | 6 µg/mL (≈ 15.2 µM) | CCN(CC)CCOC(=O)C(Cc1ccccc1)Cc1csc2ccccc12 (stereo not shown) [Compound 25] | 9.0 μg for 20 ml of bath | 60 μg/20 ml of bath | –
11 | 0.7 µg/mL (≈ 1.66 µM) | 250 µg/mL (≈ 593 µM) | O=C(OCCN1CCCCCC1)C(Cc1ccccc1)Cc1csc2ccccc12 (stereo not shown) [Compound 28] | 6.5 μg for 20 ml of bath | 750 μg/20 ml of bath | –
12 | 0.475 µg/mL (≈ 1.13 µM) | – | O=C(OCCCN1CCCCC1)C(Cc1ccccc1)Cc1csc2ccccc12 (stereo not shown) [Compound 32] | 4.5 μg for 20 ml of bath | – | –
13 | 4 µg/mL (≈ 9.63 µM) | – | O=C(OCCN1CCOCC1)C(Cc1cccs1)Cc1csc2ccccc12 (stereo not shown) [Compound 39] | 43.0 μg for 20 ml of bath | – | –
14 | 0.525 µg/mL (≈ 1.35 µM) | 2.3 µg/mL (≈ 5.93 µM) | CN(C)CCCOC(=O)C(Cc1cccs1)Cc1csc2ccccc12 (stereo not shown) [Compound 41] | 4.3 μg for 20 ml of bath | 24 μg/20 ml of bath | –
15 | 0.4 µg/mL (≈ 0.935 µM) | 3.5 µg/mL (≈ 8.18 µM) | O=C(OCCCN1CCCCC1)C(Cc1cccs1)Cc1csc2ccccc12 (stereo not shown) [Compound 44] | 5.5 μg for 20 ml of bath | 30 μg/20 ml of bath | –
16 | 0.5 µg/mL (≈ 1.21 µM) | 0.9 µg/mL (≈ 2.18 µM) | CC(CN1CCCC1)OC(=O)C(Cc1cccs1)Cc1csc2ccccc12 (stereo not shown) [Compound 46] | 2.5 μg for 20 ml of bath | 6.5 μg/20 ml of bath | –
17 | 0.75 µg/mL (≈ 2.07 µM) | – | CN(C)CCOC(=O)C(Cc1csc2ccccc12)CC1CCCO1 (stereo not shown) [Compound 47] | 9.0 μg for 20 ml of bath | – | –
18 | 1.25 µg/mL (≈ 3.21 µM) | 0.9 µg/mL (≈ 2.31 µM) | CCN(CC)CCOC(=O)C(Cc1csc2ccccc12)CC1CCCO1 (stereo not shown) [Compound 48] | 6.0 μg for 20 ml of bath | 10 μg/20 ml of bath | –

The next lines start with the molecule.

Row | SMILES | EC50 (isolated rat duodenum) | EC50 [1] | Spasmolytic activity Papaverinic type DE 30 (isolated rat duodenum) | Spasmolytic activity Atropinic type DE 30 [1] | average number of stimulations for procaine hydrochloride n' (skin reflex)
19 | C=CCC(Cc1csc2ccccc12)C(=O)OCCN1CCCC1 (stereo not shown) [Compound 2] | 1.15 µg/mL (≈ 3.35 µM) | – | 12.0 μg for 20 ml of bath | – | –
20 | C=CCC(Cc1csc2ccccc12)C(=O)OCCN1CCCCC1 (stereo not shown) [Compound 3] | 2 µg/mL (≈ 5.59 µM) | – | 18.0 μg for 20 ml of bath | – | –
21 | CN(C)CCOC(=O)C(Cc1csc2ccccc12)c1ccccc1 (stereo not shown) [Compound 12] | 2.5 µg/mL (≈ 7.07 µM) | 5 µg/mL (≈ 14.1 µM) | 24.0 μg for 20 ml of bath | 50 μg/20 ml of bath | –
22 | O=C(OCCN1CCCCC1)C(Cc1csc2ccccc12)c1ccccc1 (stereo not shown) [Compound 15] | 3.5 µg/mL (≈ 8.89 µM) | 2.25 µg/mL (≈ 5.72 µM) | 45.0 μg for 20 ml of bath | 26 μg/20 ml of bath | –
23 | O=C(OCCN1CCOCC1)C(Cc1csc2ccccc12)c1ccccc1 (stereo not shown) [Compound 16] | 5.5 µg/mL (≈ 13.9 µM) | 22.5 µg/mL (≈ 56.9 µM) | 38.0 μg for 20 ml of bath | 225 μg/20 ml of bath | –
24 | CCN(CC)CCCOC(=O)C(Cc1csc2ccccc12)c1ccccc1 (stereo not shown) [Compound 19] | 1.25 µg/mL (≈ 3.16 µM) | – | 11.5 μg for 20 ml of bath | – | –
25 | O=C(OCCCN1CCCC1)C(Cc1csc2ccccc12)c1ccccc1 (stereo not shown) [Compound 20] | 0.95 µg/mL (≈ 2.41 µM) | 2.75 µg/mL (≈ 6.99 µM) | 8.0 μg for 20 ml of bath | 25 μg/20 ml of bath | –
26 | O=C(OCCCN1CCCCCC1)C(Cc1csc2ccccc12)c1ccccc1 (stereo not shown) [Compound 22] | 0.8 µg/mL (≈ 1.9 µM) | – | 7.0 μg for 20 ml of bath | – | –
27 | CN(C)CCOC(=O)C(Cc1ccccc1)Cc1csc2ccccc12 (stereo not shown) [Compound 24] | 1.25 µg/mL (≈ 3.4 µM) | 10 µg/mL (≈ 27.2 µM) | 10.0 μg for 20 ml of bath | 90 μg/20 ml of bath | –
28 | O=C(OCCN1CCCC1)C(Cc1ccccc1)Cc1csc2ccccc12 (stereo not shown) [Compound 26] | 0.6 µg/mL (≈ 1.52 µM) | 7 µg/mL (≈ 17.8 µM) | 5.5 μg for 20 ml of bath | 50 μg/20 ml of bath | –
29 | O=C(OCCN1CCCCC1)C(Cc1ccccc1)Cc1csc2ccccc12 (stereo not shown) [Compound 27] | 0.6 µg/mL (≈ 1.47 µM) | – | 6.0 μg for 20 ml of bath | – | –
30 | CN(C)CCCOC(=O)C(Cc1ccccc1)Cc1csc2ccccc12 (stereo not shown) [Compound 29] | 0.425 µg/mL (≈ 1.11 µM) | 5 µg/mL (≈ 13.1 µM) | 4.0 μg for 20 ml of bath | 45 μg/20 ml of bath | –
31 | CCN(CC)CCCOC(=O)C(Cc1ccccc1)Cc1csc2ccccc12 (stereo not shown) [Compound 30] | 0.65 µg/mL (≈ 1.59 µM) | – | 6.0 μg for 20 ml of bath | – | –
32 | O=C(OCCCN1CCCC1)C(Cc1ccccc1)Cc1csc2ccccc12 (stereo not shown) [Compound 31] | 1.4 µg/mL (≈ 3.43 µM) | 3.25 µg/mL (≈ 7.97 µM) | 16.0 μg for 20 ml of bath | 40 μg/20 ml of bath | –
33 | O=C(OCCCN1CCCCCC1)C(Cc1ccccc1)Cc1csc2ccccc12 (stereo not shown) [Compound 33] | 0.425 µg/mL (≈ 0.976 µM) | – | 4.0 μg for 20 ml of bath | – | –
34 | CC(CN1CCCC1)OC(=O)C(Cc1ccccc1)Cc1csc2ccccc12 (stereo not shown) [Compound 34] | 0.8 µg/mL (≈ 1.96 µM) | – | 8.0 μg for 20 ml of bath | – | –
35 | CCN(CC)CCOC(=O)C(Cc1cccs1)Cc1csc2ccccc12 (stereo not shown) [Compound 36] | 1 µg/mL (≈ 2.49 µM) | 1.4 µg/mL (≈ 3.49 µM) | 8.5 μg for 20 ml of bath | 14 μg/20 ml of bath | –
36 | O=C(OCCN1CCCCC1)C(Cc1cccs1)Cc1csc2ccccc12 (stereo not shown) [Compound 38] | 0.8 µg/mL (≈ 1.93 µM) | 10 µg/mL (≈ 24.2 µM) | 6.0 μg for 20 ml of bath | 95 μg/20 ml of bath | –
37 | O=C(OCCCN1CCCCCC1)C(Cc1cccs1)Cc1csc2ccccc12 (stereo not shown) [Compound 45] | 1.35 µg/mL (≈ 3.06 µM) | – | 14.0 μg for 20 ml of bath | – | –
38 | CN(C)CCCOC(=O)C(Cc1csc2ccccc12)CC1CCCO1 (stereo not shown) [Compound 52] | 0.7 µg/mL (≈ 1.86 µM) | – | 8.0 μg for 20 ml of bath | – | –
39 | O=C(OCCCN1CCCCCC1)C(Cc1csc2ccccc12)CC1CCCO1 (stereo not shown) [Compound 56] | 0.8 µg/mL (≈ 1.86 µM) | – | 10.0 μg for 20 ml of bath | – | –
40 | CN1C2CCC1CC(OC(=O)C(CO)c1ccccc1)C2 (stereo not shown) [atropine sulphate, reference compound] | – | ≤ 0.005 µg/mL | – | – | –
41 | CCN(CC)CCOC(=O)c1ccc(N)cc1 [procaine hydrochloride, reference compound] | – | – | – | – | 30.5 and 33.9 and 36.0 and 27.2 and 29.5 and 29.2 and 33.7 and 28.2

— patent publication US3954780A, “Propionic acid derivatives” (Innothera, priority 1970, dated 1976)
